Measured values: PubChem BioAssay AID1259411 (Chemical Carcinogenesis Research Information System (CCRIS), 2018)
The source made the active and inactive calls. The rule behind the calls is not given here.

Test system: rodent carcinogenicity bioassays, tumor incidence
Assay: CCRIS carcinogenicity studies
Summary of the method: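 NCI-built, expert-reviewed records of carcinogenicity and related test outcomes (mutagenicity, tumor promotion/inhibition) compiled from published and report sources, historical span 1985-2011, not updated.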

FC(F)(F)C(Cl)Cl
carcinogen call (Species: RAT, Strain/Sex: CRL:CDBR/FEMALE, Route: INHALATION, Dose: 0, 300, 1000, 5000 PPM 6 HR/D 5 D/WK FOR 2 YR (STUDY DURATION: 2 YR), Dose: 0, 300, 1000, 5000 PPM 6 HR/D 5 D/WK FOR 2 YR (STUDY DURATION: 2 YR), Tumor Site: Type of Lesion: LIVER: ADENOMA, CHOLANGIOFIBROMA): active; positive
carcinogen call (Species: RAT, Strain/Sex: CRL:CDBR/MALE, Route: INHALATION, Dose: 0, 300, 1000, 5000 PPM 6 HR/D 5 D/WK FOR 2 YR (STUDY DURATION: 2 YR), Dose: 0, 300, 1000, 5000 PPM 6 HR/D 5 D/WK FOR 2 YR (STUDY DURATION: 2 YR), Tumor Site: Type of Lesion: LIVER: ADENOMA, PANCREAS: ADENOMA, TESTES: ADENOMA, Tumor Site: Type of Lesion: LIVER: ADENOMA, PANCREAS: ADENOMA, TESTES: ADENOMA): active; positive

O=[N+]([O-])c1ccc(Nc2ccc(Nc3ccccc3)c(S(=O)(=O)O)c2)c([N+](=O)[O-])c1
carcinogen call (Species: MOUSE, Strain/Sex: B6C3F1/FEMALE, Route: GAVAGE, Dose: 0, 250, 500 MG/KG IN CORN OIL 5D/WK FOR 103 WK (STUDY DURATION: 104 WK), Dose: 0, 250, 500 MG/KG IN CORN OIL 5D/WK FOR 103 WK (STUDY DURATION: 104 WK)): inactive; negative
carcinogen call (Species: MOUSE, Strain/Sex: B6C3F1/MALE, Route: GAVAGE, Dose: 0, 125, 250 MG/KG IN CORN OIL 5D/WK FOR 103 WK (STUDY DURATION: 104 WK), Dose: 0, 125, 250 MG/KG IN CORN OIL 5D/WK FOR 103 WK (STUDY DURATION: 104 WK)): inactive; negative
carcinogen call (Species: RAT, Strain/Sex: F344/FEMALE, Route: GAVAGE, Dose: 0, 375, 750 MG/KG IN CORN OIL 5D/WK FOR 103 WK (STUDY DURATION: 105 WK), Dose: 0, 375, 750 MG/KG IN CORN OIL 5D/WK FOR 103 WK (STUDY DURATION: 105 WK), Tumor Site: Type of Lesion: KIDNEY: TRANSITIONAL CELL CARCINOMA): active; positive
carcinogen call (Species: RAT, Strain/Sex: F344/MALE, Route: GAVAGE, Dose: 0, 375 MG/KG IN CORN OIL 5D/WK FOR 103 WK (STUDY DURATION: 104 WK)): inactive; negative

Cc1c2ccccc2c(C=O)c2ccc3ccccc3c12
carcinogen call (Species: RAT, Strain/Sex: SPRAGUE-DAWLEY/FEMALE (13/GROUP), Route: SUBCUTANEOUS, Dose: 0.2 UMOL 3X A WK FOR 20 DOSES (STUDY DURATION: 52 WK), Tumor Site: Type of Lesion: MAMMARY: ADENOCARCINOMA): active; positive (15%)
carcinogen call (Species: RAT, Strain/Sex: SPRAGUE-DAWLEY/FEMALE (13/GROUP), Route: SUBCUTANEOUS, Dose: 0.2 UMOL 3X A WK FOR 20 DOSES (STUDY DURATION: 52 WK), Tumor Site: Type of Lesion: SUBCUTANEOUS, SARCOMA): active; positive (85%)

CC(C)(C)c1cc(O)c(C(C)(C)C)cc1O
carcinogen call (Species: HAMSTER, Strain/Sex: SYRIAN/MALE, Route: ORAL, Dose: 1% IN DIET FOR 24 WK (STUDY DURATION: 24 WK), Tumor Site: Type of Lesion: FORESTOMACH: PAPILLOMA): active; positive

CCCCN(N=O)C(CCC)OO (stereo not given)
carcinogen call (Species: RAT, Strain/Sex: F344/MALE, Route: SUBCUTANEOUS, Dose: 38 UMOL/KG IN OLIVE OIL 1/WK FOR 10 WK, Tumor Site: Type of Lesion: INJECTION SITE: MALIGNANT FIBROUS HISTIOCYTOMA): active; positive

CCNC(=O)[C@@H]1CCCN1C(=O)[C@H](CCCN=C(N)N)NC(=O)[C@H](CC(C)C)NC(=O)[C@@H](COC(C)(C)C)NC(=O)[C@H](Cc1ccc(O)cc1)NC(=O)[C@H](CO)NC(=O)[C@H](Cc1c[nH]c2ccccc12)NC(=O)[C@H](Cc1cnc[nH]1)NC(=O)[C@@H]1CCC(=O)N1
carcinogen call (Species: RAT, Strain/Sex: WISTAR/FEMALE, Route: SUBCUTANEOUS, Dose: 0, 0.0002, 0.0006, 0.0018 MG/KG 1/D FOR 24 MO (STUDY DURATION: 30 MO), Dose: 0, 0.0002, 0.0006, 0.0018 MG/KG 1/D FOR 24 MO (STUDY DURATION: 30 MO)): inactive; negative
carcinogen call (Species: RAT, Strain/Sex: WISTAR/MALE, Route: SUBCUTANEOUS, Dose: 0, 0.0002, 0.0006, 0.0018 MG/KG 1/D FOR 24 MO (STUDY DURATION: 30 MO), Dose: 0, 0.0002, 0.0006, 0.0018 MG/KG 1/D FOR 24 MO (STUDY DURATION: 30 MO)): inactive; negative

C=CCc1ccc(OC)c(OC)c1
carcinogen call (Species: MOUSE, Strain/Sex: B6C3F1/FEMALE, Route: GAVAGE, Dose: 0, 37, 75, 150 MG/KG BW IN 0.5% METHYLCELLULOSE 5 D/WK FOR 105 WK (STUDY DURATION: 105 WK), Dose: 0, 37, 75, 150 MG/KG BW IN 0.5% METHYLCELLULOSE 5 D/WK FOR 105 WK (STUDY DURATION: 105 WK), Tumor Site: Type of Lesion: LIVER: HEPATOCELLULAR ADENOMA, HEPATOCELLULAR CARCINOMA, HEPATOBLASTOMA): active; positive
carcinogen call (Species: MOUSE, Strain/Sex: B6C3F1/MALE, Route: GAVAGE, Dose: 0, 37, 75, 150 MG/KG BW IN 0.5% METHYLCELLULOSE 5 D/WK FOR 105 WK (STUDY DURATION: 105 WK), Dose: 0, 37, 75, 150 MG/KG BW IN 0.5% METHYLCELLULOSE 5 D/WK FOR 105 WK (STUDY DURATION: 105 WK), Tumor Site: Type of Lesion: LIVER: TUMOR): active; positive
carcinogen call (Species: RAT, Strain/Sex: F344/N/FEMALE, Route: GAVAGE, Dose: 0, 37, 75, 150 MG/KG BW IN 0.5% METHYLCELLULOSE 5D/WK FOR 105 WK (STUDY DURATION: 105 WK), Dose: 0, 37, 75, 150 MG/KG BW IN 0.5% METHYLCELLULOSE 5D/WK FOR 105 WK (STUDY DURATION: 105 WK), Tumor Site: Type of Lesion: LIVER: HEPATOCELLULAR ADENOMA OR CARCINOMA, GLANDULAR STOMACH: BENIGN OR MALIGNANT NEUROENDOCRINE TUMOR): active; positive
carcinogen call (Species: RAT, Strain/Sex: F344/N/FEMALE, Route: GAVAGE, Dose: 0, 300 MG/KG BW IN 0.5% METHYLCELLULOSE 5D/WK FOR 52 WK (STUDY DURATION: 105 WK), Tumor Site: Type of Lesion: ADRENAL MEDULLA: BENIGN PHEOCHROMOCYTOMA, LIVER: HEPATOCELLULAR ADENOMA OR CARCINOMA, HEPATOCHOLANGIOMA OR HEPATOCHOLANG): active; positive
carcinogen call (Species: RAT, Strain/Sex: F344/N/MALE, Route: GAVAGE, Dose: 0, 37, 75, 150 MG/KG BW IN 0.5% METHYLCELLULOSE 5 D/WK FOR 105 WK (STUDY DURATION: 105 WK), Dose: 0, 37, 75, 150 MG/KG BW IN 0.5% METHYLCELLULOSE 5 D/WK FOR 105 WK (STUDY DURATION: 105 WK), Tumor Site: Type of Lesion: LIVER: HEPATOCELLULAR ADENOMA OR CARCINOMA, GLANDULAR STOMACH: MALIGNANT NEUROENDOCRINE TUMOR, KIDNEY: ADENOMA, MAMMARY, Tumor Site: Type of Lesion: LIVER: HEPATOCELLULAR ADENOMA OR CARCINOMA, GLANDULAR STOMACH: MALIGNANT NEUROENDOCRINE TUMOR, KIDNEY: ADENOMA, MAMMARY): active; positive
carcinogen call (Species: RAT, Strain/Sex: F344/N/MALE, Route: GAVAGE, Dose: 0, 300 MG/KG BW IN 0.5% METHYLCELLULOSE 5 D/WK FOR 52 WK (STUDY DURATION: 105 WK), Tumor Site: Type of Lesion: KIDNEY: RENAL TUBULE ADENOMA OR CARCINOMA, LIVER: HEPATOCELLULAR ADENOMA OR CARCINOMA, HEPATOCHOLANGIOMA OR HEPATOCHOLAN): active; positive

O=[N+]([O-])c1ccc2ccc3cc4ccccc4c4ccc1c2c34
carcinogen call (Species: MOUSE, Strain/Sex: B6C3F1/MALE, Route: INTRAPERITONEAL, Dose: 0, 400 NMOL IN 35 µL DMSO ON DAYS 1 (1/7 TOTAL DOSE), 8 (2/7 TOTAL DOSE), AND 15 (4/7 TOTAL DOSE) AFTER BIRTH (STUDY DUR): inactive; negative
carcinogen call (Species: RAT, Strain/Sex: F344/MALE, Route: SUBCUTANEOUS, Dose: 0, 500, 1000 UG SUSPENDED IN BEESWAX/TRICAPRYLIN (1:1) ONCE (STUDY DURATION: LIFETIME), Dose: 0, 500, 1000 UG SUSPENDED IN BEESWAX/TRICAPRYLIN (1:1) ONCE (STUDY DURATION: LIFETIME)): inactive; negative
